From the NIST ThermoML archive (doi:10.1021/je900632q)
Numbers after ± are expanded uncertainties.

Assay: xn = mol fraction of the nth substance listed
Settings: 101 kPa, Liquid

CCCCn1cc[n+](C)c1.N#CN=C=[N-] [1-butyl-3-methylimidazolium dicyanamide] + O
Settings	mass density [kg/m3]	viscosity [mPa·s]
278.15 K, x2 = 0	1075.8 ± 1.2	82.07 ± 2.3
278.15 K, x2 = 0.059	1075.3 ± 1.2	74.2 ± 1.6
278.15 K, x2 = 0.1963	1074.3 ± 1.2	58.7 ± 0.68
278.15 K, x2 = 0.2736	1072.8 ± 1.1	48.94 ± 0.69
278.15 K, x2 = 0.35	1071.1 ± 1.1	37.6 ± 0.53
278.15 K, x2 = 0.3974	1069.4 ± 1.1	31.98 ± 0.45
278.15 K, x2 = 0.4831	1066.2 ± 1.1	23.22 ± 0.33
288.15 K, x2 = 0	1069.4 ± 1.2	48.93 ± 0.71
288.15 K, x2 = 0.059	1068.9 ± 1.2	44.99 ± 0.65
288.15 K, x2 = 0.1963	1067.8 ± 1.1	36.45 ± 0.52
288.15 K, x2 = 0.2736	1066.4 ± 1.1	30.87 ± 0.44
288.15 K, x2 = 0.35	1064.6 ± 1.1	24.28 ± 0.35
288.15 K, x2 = 0.3974	1062.9 ± 1.1	20.88 ± 0.3
288.15 K, x2 = 0.4831	1059.6 ± 1.1	15.38 ± 0.22
298.15 K, x2 = 0	1063.1 ± 1.2	31.8 ± 0.47
298.15 K, x2 = 0.059	1062.5 ± 1.2	29.55 ± 0.43
298.15 K, x2 = 0.1963	1061.4 ± 1.1	24.4 ± 0.35
298.15 K, x2 = 0.2736	1059.9 ± 1.1	20.94 ± 0.3
298.15 K, x2 = 0.35	1059.1 ± 1.1	16.75 ± 0.24
298.15 K, x2 = 0.3974	1056.3 ± 1.1	14.52 ± 0.21
298.15 K, x2 = 0.4831	1052.9 ± 1.1	10.8 ± 0.16
308.15 K, x2 = 0	1056.8 ± 1.2	21.79 ± 0.32
308.15 K, x2 = 0.059	1056.2 ± 1.2	20.6 ± 0.3
308.15 K, x2 = 0.1963	1055 ± 1.1	17.29 ± 0.25
308.15 K, x2 = 0.2736	1053.6 ± 1.1	15 ± 0.22
308.15 K, x2 = 0.35	1051.6 ± 1.1	12.16 ± 0.18
308.15 K, x2 = 0.3974	1049.8 ± 1.1	10.61 ± 0.16
308.15 K, x2 = 0.4831	1046.2 ± 1.1	7.951 ± 0.12
318.15 K, x2 = 0	1050.6 ± 1.2	15.88 ± 0.24
318.15 K, x2 = 0.059	1050.1 ± 1.1	15.09 ± 0.23
318.15 K, x2 = 0.1963	1048.7 ± 1.1	12.82 ± 0.19
318.15 K, x2 = 0.2736	1047.3 ± 1.1	11.22 ± 0.17
318.15 K, x2 = 0.35	1045.2 ± 1.1	9.198 ± 0.14
318.15 K, x2 = 0.3974	1043.3 ± 1.1	8.072 ± 0.12
318.15 K, x2 = 0.4831	1039.6 ± 1.1	6.072 ± 0.095
328.15 K, x2 = 0	1044.4 ± 1.1	12.06 ± 0.18
328.15 K, x2 = 0.059	1043.9 ± 1.1	11.49 ± 0.17
328.15 K, x2 = 0.1963	1042.4 ± 1.1	9.885 ± 0.15
328.15 K, x2 = 0.2736	1041 ± 1.1	8.702 ± 0.13
328.15 K, x2 = 0.35	1038.8 ± 1.1	7.202 ± 0.11
328.15 K, x2 = 0.3974	1036.9 ± 1.1	6.346 ± 0.099
328.15 K, x2 = 0.4831	1033 ± 1.1	4.792 ± 0.078
338.15 K, x2 = 0	1038.2 ± 1.1	9.475 ± 0.15
338.15 K, x2 = 0.059	1037.7 ± 1.1	9.047 ± 0.14
338.15 K, x2 = 0.1963	1036.2 ± 1.1	7.852 ± 0.12
338.15 K, x2 = 0.2736	1034.7 ± 1.1	6.95 ± 0.11
338.15 K, x2 = 0.35	1032.4 ± 1.1	5.798 ± 0.092
338.15 K, x2 = 0.3974	1030.5 ± 1.1	5.126 ± 0.082
338.15 K, x2 = 0.4831	1026.4 ± 1.1	3.884 ± 0.065
348.15 K, x2 = 0	1032.1 ± 1.1	7.643 ± 0.12
348.15 K, x2 = 0.059	1031.5 ± 1.1	7.314 ± 0.12
348.15 K, x2 = 0.1963	1030 ± 1.1	6.397 ± 0.1
348.15 K, x2 = 0.2736	1028.5 ± 1.1	5.688 ± 0.091
348.15 K, x2 = 0.35	1026.1 ± 1.1	4.777 ± 0.078
348.15 K, x2 = 0.3974	1024.1 ± 1.1	4.237 ± 0.07
348.15 K, x2 = 0.4831	1019.8 ± 1.1	3.223 ± 0.056
358.15 K, x2 = 0	1025.8 ± 1.1	6.304 ± 0.1
358.15 K, x2 = 0.059	1025.3 ± 1.1	6.048 ± 0.097
358.15 K, x2 = 0.1963	1023.8 ± 1.1	5.322 ± 0.086
358.15 K, x2 = 0.2736	1022.3 ± 1.1	4.748 ± 0.078
358.15 K, x2 = 0.35	1019.8 ± 1.1	4.007 ± 0.067
358.15 K, x2 = 0.3974	1017.7 ± 1.1	3.577 ± 0.061
358.15 K, x2 = 0.4831	1013.2 ± 1.1	2.711 ± 0.05
